Source: patent publication EP4177246A1, “FUSED OXAZEPINES AS INHIBITORS OF PEROXIREDOXINS” (Centro Atlántico del Medicamento, SA, priority 2021, dated 2023)

How the values were obtained:
[1] = target: T1, PRDX1 (Homo sapiens, UniProt Q06830); test: Western blot of monomeric/dimeric and oxidized forms of PRDX1 in treated cells; type: cell-based; conditions: 1 µM, MDA-MB-231 cells
T1 construct: treatment of untreated MDA-MB-231 cell lysates with a resin coupled to compound 24; endogenous in cells; host or cells: MDA-MB-231 (ATCC HTB-26)
T1 sequence (Q06830 1-199): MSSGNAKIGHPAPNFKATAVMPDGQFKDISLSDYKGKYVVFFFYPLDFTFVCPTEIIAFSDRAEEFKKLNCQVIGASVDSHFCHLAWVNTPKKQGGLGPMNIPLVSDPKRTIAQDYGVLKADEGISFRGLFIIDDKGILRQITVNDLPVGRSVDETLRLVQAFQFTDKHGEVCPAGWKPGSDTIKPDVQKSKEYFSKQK
Procedure: To that end, compound 24 1 µM was added to MDA-MB-231 cells and followed by Western Blot analysis. β-actin was used as control.
Non-reducing and reducing conditions used are those commonly used to assess the status of PRDX1 (see ref. 34 and 35) ref. 35

[2] = test system: DU-145; test: MTT cell viability assay, DU-145 cells; type: cell-based; conditions: Homo sapiens, 48 h drug exposure
Procedure: DU-145 [American Type Culture Collection (ATCC) reference number HTB-81]. This a human prostate cancer cell line derived from a metastatic site (brain) of a person.
Cell viability was assayed by measuring the mitochondrial reduction of the tetrazolium salt 3-(4,5-methyltiazol-2yl)-2,5diphenyl-tetrazolium bromide] (MTT) (Applichen; A2231,0010) [Mosmann T. J Immunol Methods. 1983 16;65(1-2):55-63 (ref. 36); Chuan Y-C et al 2010. Oncogene. 29 (10), 1531-1542 (ref. 37)]. Cells were seeded in 96-well plates in medium (either RPMI, DMEM or McCoys depending on the recommendations from the ATCC) supplemented with 10% FBS (Lonza Cat. N°: 14-502F), 2mM L-Glut (Lonza Cat. N°: BE17-605E) and 100U/ml PEST (Lonza Cat. N°: DE17-605E) at a cell density of 1000-5000 cells/well (96 well plate). Cells were seeded at a density according to their exponential growth phase (normally 1000 to 5000/well). The cells were cultured at 37 °C in the dark in air containing 5% CO2. After 24h either vehicle (0.05% DMSO) or drug were added to culture medium at the indicated concentrations (10 to 0,01microM). After another 48 h, MTT (0.3 mg/ml) was added to cells, followed by incubation for 2-4h at 37 °C in the dark. The medium was then removed and the precipitated formazan was solubilized by the addition of DMSO (200 µL).
The optical density was measured at 595 nm with the iMark Microplate Reader (BioRad, USA). Data was expressed as percent growth above the level in controls and the results in figures were plotted as means ± SEM of each test point from 3 replicates.
Statistical analysis. The concentration of drug that provokes 50% reduction of cell viability (IC50) was determined by using non-linear regression analysis and data were fitted to a log concentration vs normalized response curve in GraphPad software v5 (San Diego, CA).

[3] = test system: PRDX1 and/or PRDX2; test: Resin-bound affinity chromatography with competition/elution by free compound (type of binding); set-up: species or system human; conditions: MDA-MB-231 cell lysates; pre-incubation 1.5 hours with 50 micrograms of free compound; SDS-PAGE, silver staining
Procedure: The immobilization of compound (24) and the identification of its targets was accomplished using a previously described method [Orive-Ramos A, Seoane S, Ocaña A, Pandiella A, Montero JC. Regulation of the prometastatic neuregulin-MMP13 axis by SRC family kinases: therapeutic implications. Mol Oncol. 2017 Dec; 11(12): 1788-1805] (ref. 32). Briefly, 5 mg of the compound was dissolved in a coupling solution (50% dimethylformamide, 50% 0.1 M Na2CO3), and incubated with 0.5 mg of epoxy-activated sepharose 6B (GE Healthcare Life Sciences; Piscataway, NJ, USA), obtaining a CM728-coupled resin. A control resin was prepared without the compound (uncoupled). Both resins were incubated with 25 mg of cell extracts from MDA-MB-231 and BT-549 cancer cells.
The resulting complexes were retrieved by centrifugation, washed with lysis buffer, re-suspended and boiled in loading buffer and resolved in SDS-PAGE. The gel was silver stained and the bands of interest were excised, digested by trypsin (Figure 1). […]
In another experiment the resins collected after being incubated with cell lysates (analyzed in lanes 1 and 2) were further treated with free compound 24 to elute non-covalent compound 24 specific, binding proteins. […]

[4] = target: T1, PRDX1; test: Competitive immunoprecipitation / immunoblot for PRDX1 with compound-coupled resin; type: binding; conditions: untreated MDA-MB-231 cell lysates; not trapped from lysates pre-treated with unbound compound
Description: As indicated in the brief description of the figures, the treatment of untreated MDA-MB-231 cell lysates with a resin coupled to compound 24 (24-coupled resin) were subjected to immunoprecipitation analysis for PRDX1 [for the methodology to perform immunoprecipitation and western blot analysis of PRDXs see Am J Physiol Heart Circ Physiol. 2008 Jul; 295(1): H425-H433 (ref. 34); and Oncogene. 2013 November 7; 32(45): 5302-5314 (ref. 35)].

IC50 [2]: 3.19 µM | manner in which compound binds to PRDX1 and/or PRDX2 [3]: non-reversible covalent manner
SMILES: O=C1C2=C(C(=O)c3c(O)ccc(O)c31)N(c1cccnc1)Cc1ccccc1O2 [Compound 24, 7,10-dihydroxy-12-(pyridin-3-yl)-12,13-dihydrobenzo[f]naphtho[2,3-b][1,4]oxazepine-6,11-dione]
conversion of PRDX1 monomeric form into dimeric form ([1]; non-reducing conditions): a rapid conversion of PRDX1 from its basal active monomeric form, into its inactive dimeric form | levels of hyperoxidized PRDX1 (SO2/3-Prdx) ([1]; reducing conditions): a significant increase in the levels of inactive hyperoxidized 2-cystiene PRDX1 | trapping of PRDX1 by compound-coupled resin [4]: PRDX1 was clearly trapped by the 24-coupled resin
